US7868204B2, “Inhibitors of histone deacetylase” (MethylGene Inc., priority 2001, dated 2011)
Where two headings read alike, the source gives them in different places.

Tests used:
[1] = target: T1, cloned recombinant human HDAC-1 (Homo sapiens, UniProt Q13547); experiment: Human HDAC-1 enzyme inhibition, Assay 1 ([3H]-acetylated histone substrate, scintillation counting); assay type: biochemical; conditions: read-out: Human HDAC-1 IC50
T1 construct: made in house; host or cells: Baculovirus insect cell expression system
Procedure, shortened: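 Activity read as [3H]-acetic acid liberated from labeled substrate, ethyl acetate-extracted and scintillation-counted. Compounds preincubated 30 min at 4° C. with baculovirus-expressed, purified human HDAC-1. Dose-response curves give IC50 as concentration producing fifty percent of maximal inhibition.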

[2] = test system: HCT116 cells; experiment: MTT assay; assay type: cell-based; conditions: Homo sapiens, HCT-116, 72 h, HCT116 cells, 72 hours
Procedure, shortened: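 Read-out: MTT (0.5 mg/ml final, 4 h) after solubilization in 50% DMF/20% SDS, pH 4.7, with OD translated into cell number via the line's growth curve. Compound treatment lasted 72 h at 37 °C in 5% CO2, starting a day after plating.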

[3] = test system: acetylated histone H-4 in T24 human bladder cancer cells; experiment: Histone H4 acetylation in whole cells by immunoblots; assay type: cell-based; conditions: 16 h
Procedure, shortened: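 Acetylated histone H4 was quantified by densitometry of ECL-developed immunoblots, probed with a polyclonal antibody, of […] total histone from T24 cultures exposed 16 h to HDAC inhibitors.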

[4] = T-24, Table 5F, read-out: H4 Ac (T24) EC50
[5] = T-24, Table 5b, read-out: H4Ac (T24) EC50

T1 sequence (Q13547 whole entry): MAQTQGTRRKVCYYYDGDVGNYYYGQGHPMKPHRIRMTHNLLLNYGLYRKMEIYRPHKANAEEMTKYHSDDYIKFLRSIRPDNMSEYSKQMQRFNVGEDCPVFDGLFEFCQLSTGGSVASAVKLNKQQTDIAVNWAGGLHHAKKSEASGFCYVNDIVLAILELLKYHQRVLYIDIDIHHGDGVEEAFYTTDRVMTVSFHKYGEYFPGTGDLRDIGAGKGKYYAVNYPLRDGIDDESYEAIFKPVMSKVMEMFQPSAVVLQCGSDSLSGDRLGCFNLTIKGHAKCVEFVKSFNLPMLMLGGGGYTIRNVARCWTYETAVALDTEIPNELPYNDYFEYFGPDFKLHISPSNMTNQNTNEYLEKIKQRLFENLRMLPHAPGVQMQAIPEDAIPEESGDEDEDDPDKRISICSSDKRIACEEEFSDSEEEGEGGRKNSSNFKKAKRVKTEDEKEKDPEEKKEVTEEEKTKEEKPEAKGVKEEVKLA

| IC50 ([1]; Table 5F) [nM] | IC50 ([2]; Table 5F) [nM] | EC50 [3, 4] [nM] | IC50 ([1]; Table 5b) [nM] | IC50 ([2]; Table 5b) [nM] | EC50 [3, 5] [nM] | Compound |
| --- | --- | --- | --- | --- | --- | --- |
| 2000 | 1000 | 3000 |  |  |  | COc1ccc(CNC2(C#Cc3ccc(C(=O)Nc4ccccc4N)cc3)CCCCC2)cc1 [Cpd 192] |
|  |  |  | 400 | 600 | 2000 | Nc1nc(NC2Cc3ccccc3C2)nc(OCc2ccc(C(=O)Nc3ccccc3N)cc2)n1 [Cpd 207] |
|  |  |  | 3000 | 900 | 1000 | Nc1ccccc1NC(=O)c1ccc(CNc2ncnc(NCCc3ccccc3)n2)cc1 [Cpd 210] |
|  |  |  | 3000 | 1000 | 1000 | COc1nc(NCc2ccc(C(=O)Nc3ccccc3N)cc2)nc(OC)n1 [Cpd 212] |
|  |  |  | 3000 | 900 | 1000 | COc1nc(NCc2ccc(C(=O)Nc3ccccc3N)cc2)nc(NC2Cc3ccccc3C2)n1 [Cpd 214] |
|  |  |  | 500 | 400 | 2000 | CN(Cc1ccc(C(=O)Nc2ccccc2N)cc1)c1nc(N)nc(NC2Cc3ccccc3C2)n1 [Cpd 216] |
| 3000 | 300 | 1000 |  |  |  | Nc1ccccc1NC(=O)c1ccc(CNc2nc3ccc(OCCN4CCOCC4)cc3s2)cc1 [Cpd 228] |
| 900 | 300 | 1000 |  |  |  | COc1ccc2nc(NCc3ccc(C(=O)Nc4ccccc4N)cc3)sc2c1 [Cpd 233] |
| 2000 | 800 | 1000 |  |  |  | COCCn1cnc2c(NCc3ccc(C(=O)Nc4ccccc4N)cc3)nc(Cl)nc21 [Cpd 243] |
| 3000 | 600 | 2000 |  |  |  | Cc1onc2c1c(=O)n(Cc1ccc(C(=O)Nc3ccccc3N)cc1)c1cccc(Cl)c21 [Cpd 247] |
| 4000 | 1000 | 2000 |  |  |  | Nc1ccccc1NC(=O)c1ccc(-c2ncc[nH]2)cc1 [Cpd 249] |
| 8000 | 1000 | 2000 |  |  |  | Nc1ccccc1NC(=O)c1ccc(Cc2nc(CN3CCOCC3)cs2)cc1 [Cpd 252] |
| 2000 | 800 | 1000 |  |  |  | CCn1c(=O)n(Cc2ccc(C(=O)Nc3ccccc3N)cc2)c(=O)c2sccc21 [Cpd 255] |
| 400 | 400 | 1000 |  |  |  | Nc1ccccc1NC(=O)c1ccc(Cn2cnc3ccsc3c2=O)cc1 [Cpd 257] |
| 500 | 300 | 5000 |  |  |  | Nc1ccccc1NC(=O)c1ccc(CNc2nc(-c3ccc(Cl)cc3)cs2)cc1 [Cpd 321, N-(2-Amino-phenyl)-4-{[4-(4-chloro-phenyl)-thiazol-2-ylamino]-methyl}-benzamide] |
| 700 | 400 | 2000 |  |  |  | Nc1ccccc1NC(=O)c1ccc(CNc2nc3cc(Br)ccc3s2)cc1 [Cpd 322, N-(2-Amino-phenyl)-4-[(5-bromo-benzothiazol-2-ylamino)-methyl]-benzamide] |
| 1000 | 600 | 1000 |  |  |  | COc1cc(NCc2ccc(-c3ccc(C(=O)Nc4ccccc4N)cc3)s2)cc(OC)c1OC [Cpd 323] |
| 300 | 1000 | 2000 |  |  |  | Nc1ccccc1NC(=O)c1ccc(CSc2nc3ccc(NCc4cccnc4)cc3s2)cc1 [Cpd 325, N-(2-Amino-phenyl)-4-{6-[(pyridin-3-ylmethyl)-amino]-benzothiazol-2-ylsulfanylmethyl}-benzamide] |
| 1000 | 1000 | 3000 |  |  |  | Nc1ccccc1NC(=O)c1ccc(CSc2nc3ccc(NCc4ccccn4)cc3s2)cc1 [Cpd 326, N-(2-Amino-phenyl)-4-{6-[(pyridin-2-ylmethyl)-amino]-benzothiazol-2-ylsulfanylmethyl}-benzamide] |
| 2000 | 5000 | 3000 |  |  |  | Nc1ccccc1NC(=O)c1ccc(CSc2ncc[nH]2)cc1 [Cpd 327, N-(2-Amino-phenyl)-4-(1H-imidazol-2-ylsulfanylmethyl)-benzamide] |
| 3000 | 2000 | 1000 |  |  |  | CCCCn1cnc2c(NCc3ccc(C(=O)Nc4ccccc4N)cc3)nc(N)nc21 [Cpd 330, 4-[(2-Amino-9-butyl-9H-purin-6-ylamino)-methyl]-N-(2-amino-phenyl)-benzamide] |

| IC50 ([1]; Table 5F) [nM] | IC50 ([2]; Table 5F) [nM] | EC50 [3, 4] [nM] | IC50 ([1]; Table 5b) [nM] | IC50 ([2]; Table 5b) [nM] | EC50 [3, 5] [nM] | Compound |
| --- | --- | --- | --- | --- | --- | --- |
| 400 | 1000 | 5000 |  |  |  | Nc1ccccc1NC(=O)c1ccc(CNc2nc(Cl)nc3[nH]cnc23)cc1 [Cpd 332, N-(2-Amino-phenyl)-4-[(2-chloro-9H-purin-6-ylamino)-methyl]-benzamide] |
| 2000 | 100 | 1000 |  |  |  | CCCCn1cnc2c(NCc3ccc(C(=O)Nc4ccccc4N)cc3)nc(Cl)nc21 [Cpd 333, N-(2-Amino-phenyl)-4-[(9-butyl-2-chloro-9H-purin-6-ylamino)-methyl]-benzamide] |
| 8000 | 200 | 1000 |  |  |  | Nc1ccccc1NC(=O)c1ccc(NCc2nc3ccccc3[nH]2)cc1 [Cpd 334] |
| 1000 | 400 | < 1000 |  |  |  | Nc1ccccc1NC(=O)c1ccc(Cn2cnc3ccc(Cl)cc3c2=O)cc1 [Cpd 336] |
| 3000 | 600 | 1000 |  |  |  | Cc1nc2ccccc2c(=O)n1Cc1ccc(C(=O)Nc2ccccc2N)cc1 [Cpd 337, N-(2-Amino-phenyl)-4-(2-methyl-4-oxo-4H-quinazolin-3-ylmethyl)-benzamide] |
| 2000 | 500 | 3000 |  |  |  | COc1cc2ncn(Cc3ccc(C(=O)Nc4ccccc4N)cc3)c(=O)c2cc1OC [Cpd 338, N-(2-Amino-phenyl)-4-(6,7-dimethoxy-4-oxo-4H-quinazolin-3-ylmethyl)-benzamide] |
| 2000 | 1000 | 1000 |  |  |  | CN(C)CCn1c(=O)n(Cc2ccc(C(=O)Nc3ccccc3N)cc2)c(=O)c2ccccc21 [Cpd 340, N-(2-Amino-phenyl)-4-[1-(2-dimethylamino-ethyl)-2,4-dioxo-1,4-dihydro-2H-quinazolin-3-ylmethyl]-benzamide] |
| 4000 | 1000 | 3000 |  |  |  | Nc1ccccc1NC(=O)c1ccc(Cn2c(=O)c3ccccc3n(CCN3CCOCC3)c2=O)cc1 [Cpd 341] |
| 3000 | 400 | 1000 |  |  |  | Cc1nc2ccc(Br)cc2c(=O)n1Cc1ccc(C(=O)Nc2ccccc2N)cc1 [Cpd 342, N-(2-Amino-phenyl)-4-(6-bromo-2-methyl-4-oxo-4H-quinazolin-3-ylmethyl)-benzamide] |
| 500 | 300 | 1000 |  |  |  | Nc1ccccc1NC(=O)c1ccc(Cn2c(=O)[nH]c3ccsc3c2=O)cc1 [Cpd 343, N-(2-Amino-phenyl)-4-(2,4-dioxo-1,4-dihydro-2H-thieno[3,2-d]pyrimidin-3-ylmethyl)-benzamide] |
| 500 | 200 | 1000 |  |  |  | CCn1c(=O)n(Cc2ccc(C(=O)Nc3ccccc3N)cc2)c(=O)c2cc(Br)ccc21 [Cpd 344, N-(2-Amino-phenyl)-4-(6-bromo-1-ethyl-2,4-dioxo-1,4-dihydro-2H-quinazolin-3-ylmethyl)-benzamide] |
| 400 | 800 | 1000 |  |  |  | COc1ccc(Cn2c(=O)n(Cc3ccc(C(=O)Nc4ccccc4N)cc3)c(=O)c3ccccc32)cc1 [Cpd 345, N-(2-Amino-phenyl)-4-[1-(4-methoxy-benzyl)-2,4-dioxo-1,4-dihydro-2H-quinazolin-3-ylmethyl]-benzamide] |
| 3000 | 500 | < 1000 |  |  |  | Nc1ccccc1NC(=O)c1ccc(Cn2cnc3ccc(Br)cc3c2=O)cc1 [Cpd 346, N-(2-Amino-phenyl)-4-(6-bromo-4-oxo-4H-quinazolin-3-ylmethyl)-benzamide] |
| 2000 | 600 | 2000 |  |  |  | Nc1ccccc1NC(=O)c1ccc(Cn2nnc3ccc(Br)cc3c2=O)cc1 [Cpd 347, N-(2-Amino-phenyl)-4-(6-bromo-4-oxo-4H-benzo[d][1,2,3]triazin-3-ylmethyl)-benzamide] |
| 2000 | 300 | 1000 |  |  |  | Nc1ccccc1NC(=O)c1ccc(Cn2nnc3ccc(Cl)cc3c2=O)cc1 [Cpd 348, N-(2-Amino-phenyl)-4-(6-chloro-4-oxo-4H-benzo[d][1,2,3]triazin-3-ylmethyl)-benzamide] |
| 13000 | 1000 | 3000 |  |  |  | Nc1ccccc1NC(=O)c1ccc(CNc2cccc(F)n2)cc1 [Cpd 349] |
| 2000 | 1000 | 5000 |  |  |  | Nc1ccccc1NC(=O)c1ccc(CNc2nc(F)c(F)cc2F)cc1 [Cpd 350] |
| 4000 | 400 | 2000 |  |  |  | Nc1ccccc1NC(=O)c1ccc(Cc2noc(-c3cccnc3)n2)cc1 [Cpd 357, N-(2-Amino-phenyl)-4-(5-pyridin-3-yl-[1,2,4]oxadiazol-3-ylmethyl)-benzamide] |
| 3000 | 1000 | 2000 |  |  |  | Nc1ccccc1NC(=O)c1ccc(Cc2noc(-c3ccncc3)n2)cc1 [Cpd 358, N-(2-Amino-phenyl)-4-(5-pyridin-4-yl-[1,2,4]oxadiazol-3-ylmethyl)-benzamide] |
| 2000 | 300 | 1000 |  |  |  | CC(=O)Nc1sc(Cc2ccc(C(=O)Nc3ccccc3N)cc2)cc1C#N [Cpd 359, 4-(5-Acetylamino-4-cyano-thiophen-2-ylmethyl)-N-(2-amino-phenyl)-benzamide] |
